Source: publication PMC3994220 (Nanoscale Research Letters, 2014)
≈ marks a conversion by molar mass, not a printed value.

Assay: Paclitaxel plasma solubility (excess drug equilibrated in rodent plasma, HPLC)
Assay type: physicochemical
Conditions: 37°C, 24 h equilibration
Text: where dC/dt is the dissolution rate, D is the solute diffusion coefficient, V is the volume of the dissolution medium, hd is the diffusion boundary thickness, S is the surface area of the solute, Cs is the saturation solubility of the solute, and Ct(t) is the bulk solute concentration. The stability of the crystalline nanosuspension was monitored for a period of 3 weeks for particle size, PXRD, and chemical stability (by HPLC). […] Excess drug was then removed by centrifugation which was followed by protein precipitation, and the concentration was measured by HPLC with an external standard.

SMILES: CC(=O)O[C@H]1C(=O)[C@@]2(C)[C@H]([C@H](OC(=O)c3ccccc3)[C@]3(O)C[C@H](OC(=O)[C@H](O)[C@@H](NC(=O)c4ccccc4)c4ccccc4)C(C)=C1C3(C)C)[C@]1(OC(C)=O)CO[C@@H]1C[C@@H]2O [paclitaxel]
- solubility at 24 h: 40 µg/mL (≈ 46.8 µM)
